The values that follow come from PMC10517138, “Varied effects of tobacco smoke and e-cigarette vapor suggest that nicotine does not affect endothelium-dependent relaxation and nitric oxide signaling” (Scientific Reports, 2023).

The test deals with T1, purified sGC (bovine lung soluble guanylyl cyclase) (Bos taurus, UniProt P16068).
T1 construct: gene GUCY1B1; native enzyme purified from bovine lung; with Guanylate cyclase soluble subunit alpha-1
T1 sequence (P16068 1-619): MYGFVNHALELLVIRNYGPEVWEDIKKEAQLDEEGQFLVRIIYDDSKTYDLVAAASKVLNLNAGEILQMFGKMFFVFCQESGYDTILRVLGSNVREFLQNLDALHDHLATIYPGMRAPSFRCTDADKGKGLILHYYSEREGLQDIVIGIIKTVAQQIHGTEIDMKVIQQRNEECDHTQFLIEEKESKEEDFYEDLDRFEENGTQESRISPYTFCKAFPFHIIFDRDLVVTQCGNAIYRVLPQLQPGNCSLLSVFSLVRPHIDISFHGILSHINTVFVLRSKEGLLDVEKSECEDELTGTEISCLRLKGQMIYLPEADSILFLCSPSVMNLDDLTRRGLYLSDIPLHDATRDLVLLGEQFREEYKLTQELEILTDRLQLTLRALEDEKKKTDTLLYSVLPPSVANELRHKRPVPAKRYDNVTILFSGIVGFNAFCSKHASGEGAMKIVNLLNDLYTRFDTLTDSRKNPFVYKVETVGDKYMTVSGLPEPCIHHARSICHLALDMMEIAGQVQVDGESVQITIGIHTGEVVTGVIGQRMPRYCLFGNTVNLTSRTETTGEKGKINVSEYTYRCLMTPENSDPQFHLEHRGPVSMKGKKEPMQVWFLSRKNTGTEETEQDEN
T1 sequence (P19687 1-691 partner): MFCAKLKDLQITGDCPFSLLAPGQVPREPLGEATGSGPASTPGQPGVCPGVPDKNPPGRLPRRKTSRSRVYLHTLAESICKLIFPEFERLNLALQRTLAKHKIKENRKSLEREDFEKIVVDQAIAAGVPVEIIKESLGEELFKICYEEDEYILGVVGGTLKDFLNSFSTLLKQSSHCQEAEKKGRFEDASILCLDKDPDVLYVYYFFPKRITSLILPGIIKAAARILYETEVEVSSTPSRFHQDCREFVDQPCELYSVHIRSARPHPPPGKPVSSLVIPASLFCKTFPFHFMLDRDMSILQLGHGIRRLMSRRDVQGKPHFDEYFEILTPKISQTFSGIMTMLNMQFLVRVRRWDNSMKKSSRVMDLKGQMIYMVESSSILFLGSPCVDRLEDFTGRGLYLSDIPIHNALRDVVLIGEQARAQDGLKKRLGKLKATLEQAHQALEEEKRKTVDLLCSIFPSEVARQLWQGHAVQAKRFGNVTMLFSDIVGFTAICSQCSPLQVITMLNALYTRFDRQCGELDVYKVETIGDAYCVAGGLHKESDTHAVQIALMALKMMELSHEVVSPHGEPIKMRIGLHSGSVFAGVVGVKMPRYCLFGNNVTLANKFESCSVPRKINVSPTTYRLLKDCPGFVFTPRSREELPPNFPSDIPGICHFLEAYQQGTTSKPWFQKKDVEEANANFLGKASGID
The test is described as follows: […]cGMP formation from [alpha-32P]GTP by purified sGC. As to conditions: 0.5 mM GTP, 3 mM MgCl2, 1 mM cGMP, 0.5% Tween 20 (heme-depleted enzyme), TEA/HCl pH 7.4, 37 °C, no extract; NO-independent heme-site activator. It is filed as biochemical.

Molecules are shown by their SMILES.

Regarding `O=C(O)CCCCN(CCc1ccccc1OCc1ccc(CCc2ccccc2)cc1)Cc1ccc(C(=O)O)cc1` [cinaciguat], the “cGMP formation (activation)” value is “cGMP formation by Tween 20-treated sGC in the presence of the NO-independent heme-site activator cinaciguat”.
